Key:
[1] = Gas-phase evaluation of each fragrance ingredient alone against model scalp malodour, MiniVAS device, panel of 5 experts; settings: for Scalp MOC of ingredient alone: expert description
Description: In a first set of experiments, the scalp malodour counteractancy of 173 fragrance ingredients was evaluated by panel of 5 experts.
The evaluation was performed in the gas phase, using a MiniVAS™ device (ex Givaudan SA). This device is a regulating means that comprises a plurality of channels adapted to convey a gas (more particularly air) through cartridges, each cartridge containing a fragrance ingredient adsorbed onto an adsorbent. The air flows coming from the different cartridges are admixed and conveyed to the user's nose through a tubing fitted with an olfactometer funnel. Thus, by opening and closing channels and maintaining these opened and closed, respectively, for predetermined times, the regulating means can determine which fragrance ingredients and how much thereof are conveyed and when, and thus alter the nature of the fragrance perceived by the user. A description of the device can be found in WO2014154909A1, page 2, line 11 to page 4, line 7, and in H. R. Gygax et al. “Evolution of Real Time Aroma Creation at Givaudan”, poster presented at the 12th Weurman Flavour Research Symposium. July 2008. Interlaken, Switzerland; DOI: 10.13140/2.1.1924.0641.
For the sake of the present evaluation, one cartridge contained the scalp malodour (in the form of a model malodour) and each fragrance ingredient was assigned to another cartridge. The malodour counteractancy of each fragrance ingredient was evaluated separately against the scalp malodour. A constant air flow rate of 50 ml/min was used for all measurements. The perceived malodour intensity, as well as the fragrance intensity, were ranked on a scale of 1-5 (1=barely noticeable, 2=weak, 3=medium, 4=strong and 5=very strong).

[2] = Impact of fragrance ingredients on scalp malodour counteractancy of 80 fragrance compositions (Example 2 protocol, statistical presence); settings: series of 80 fragrance compositions
Description: In a second set of experiments, the impact of these fragrance ingredients on the scalp malodour counteractancy of a fragrance composition was assessed. The scalp malodour counteractancy of a series of 80 fragrance compositions was assessed by performing the evaluation protocol described in Example 2. […] Ingredients that were statistically more present in fragrances having a high malodour counteractancy were assigned a positive status, whereas ingredients that were statistically more present in compositions having a low malodour counteractancy were assigned a negative status.

[3] = Table 3, air flow 50 ml/min, scale of 1-5 (1=barely noticeable, 5=very strong)
[4] = Table 4, air flow 50 ml/min, scale of 1-5

Row | Compound | MO intensity [1, 3] | Impact on scalp MOC of fragrance composition ([2]; Table 3) | Scalp MOC of ingredient alone ([1]; Table 3, gas phase) | MO intensity [1, 4] | Impact on scalp MOC of fragrance composition ([2]; Table 4) | Scalp MOC of ingredient alone ([1]; Table 4, gas phase)
1 | O=CCC/C=C1\CC2CC1[C@H]1CCC[C@@H]21 (stereo partly drawn) [(E)-4-((3aS,7aS)-hexahydro-1H-4,7-methanoinden-5(6H)-ylidene)butanal] | 2.5 | Positive | – | – | – | –
2 | C/C=C(\CC)CCC(C)CCO (stereo not drawn) [(E)-6-ethyl-3-methyloct-6-en-1-ol] | 3 | Positive | – | – | – | –
3 | CC1C/C=C/CCCCCCCC(=O)OCC1 (stereo not drawn) [(E)-13-methyloxacyclopentadec-10-en-2-one] | 2 | Positive | – | – | – | –
4 | CCCCCC/C=C/C(=O)OC [(E)-methyl non-2-enoate] | 1 | Positive | No effect | – | – | –
5 | CC(=O)OC/C=C(/C)CCC=C(C)C [(Z)-3,7-dimethylocta-2,6-dien-1-yl acetate] | – | – | – | 1 | Negative | –
6 | CC/C=C\CC1=C(C)CCC1=O [(Z)-3-methyl-2-(pent-2-en-1-yl)cyclopent-2-enone] | – | – | – | 1.8 | Negative | Low coverage
7 | CC1C/C=C\CCCCCCCCCC(=O)C1 (stereo not drawn) [(Z)-3-methylcyclopentadec-5-enone] | 2.1 | Positive | – | – | – | –
8 | O=C1CCC/C=C\CCCCCCCCCC1 [(Z)-cyclohexadec-5-enone] | – | – | – | 1 | Negative | Enhances MO
9 | CC/C=C\CCOC(=O)c1ccccc1 [(Z)-hex-3-en-1-yl benzoate] | – | – | – | 2 | Negative | Low coverage
10 | C=CCOC(=O)COC1CCCCC1 [allyl 2-(cyclohexyloxy)acetate] | – | – | – | 4.3 | Negative | –
11 | O=Cc1ccc2c(c1)OCO2 [benzo[d][1,3]dioxole-5-carbaldehyde] | 3 | Positive | – | – | – | –
12 | CC(=O)OCc1ccccc1 [benzyl acetate] | – | – | – | 0 | Negative | Enhances MO
13 | CCC(=O)OCc1ccccc1 [benzyl propanoate] | – | – | – | 1 | Negative | –
14 | O=C(OC1CCCCC1)c1ccccc1O [cyclohexyl 2-hydroxybenzoate] | 1 | Positive | No effect | – | – | –
15 | CCOC(=O)C1=C(C)C=CCC1(C)C [ethyl 2,6,6-trimethylcyclohexa-1,3-diene-1-carboxylate] | – | – | – | 1 | Negative | –
16 | CCOC(=O)CC1(C)OCCO1 [ethyl 2-(2-methyl-1,3-dioxolan-2-yl)acetate] | 2.3 | Positive | – | – | – | –
17 | CCOC(=O)C(C)C [ethyl 2-methylpropanoate] | 1 | Positive | No effect | – | – | –
18 | CCCCCCC(=O)OCC [ethyl heptanoate] | 1 | Positive | No effect | – | – | –
19 | CCOC(=O)C1OC1(C)c1ccccc1 (stereo not drawn) [ethyl methyl phenyl glycidate] | – | – | – | 1 | Negative | –
20 | CCCCCCCC(=O)OCC [ethyl octanoate] | 1 | Positive | No effect | – | – | –
21 | COC(=O)c1ccccc1N [methyl 2-aminobenzoate] | 4.3 | Positive | – | – | – | –
22 | CCCCCCC1C(=O)CCC1C(=O)OC (stereo not drawn) [methyl 2-hexyl-3-oxocyclopentane-1-carboxylate] | – | – | – | 1 | Negative | –
23 | CCCCCCC#CC(=O)OC [methyl non-2-ynoate] | 1.8 | Positive | – | – | – | –
24 | C=CCOC(=O)CCC1CCCCC1 [prop-2-enyl 3-cyclohexylpropanoate] | – | – | – | 1.5 | Negative | –
25 | CC(C)CC1CC(C)(O)CCO1 (stereo not drawn) [tetrahydro-4-methyl-2-(2-methylpropyl)-2H-pyran-4-ol] | – | – | – | 2.2 | Negative | Low coverage
26 | CCCCCCCCCCC=O [undecanal] | – | – | – | 1 | Negative | Enhances MO
27 | mercapto-para-menthan-3-one | 1 | Positive | No effect | – | – | –

From patent US20260272797A1, “FRAGRANCE COMPOSITION” (GIVAUDAN SA, priority 2023, published 2026)
